Assay results as given in the CheMixHub viscosity set.

Test: xn = mol fraction of the nth substance listed
Details: 101 kPa

OCCCCO + CS(C)=O
viscosity [mPa·s]
Details	293.15 K	298.15 K	303.15 K	308.15 K	313.15 K	318.15 K
x1 = 0.0436	2.61	2.25	2.06	1.81	1.67	1.55
x1 = 0.0879	3	2.59	2.35	2.06	1.89	1.74
x1 = 0.1327	3.46	2.97	2.68	2.34	2.13	1.96
x1 = 0.1781	4.01	3.4	3.06	2.66	2.41	2.21
x1 = 0.2242	4.66	3.92	3.51	3.05	2.73	2.53
x1 = 0.2709	5.43	4.53	4.05	3.49	3.13	–
x1 = 0.3183	6.36	5.27	4.7	4	3.55	–
x1 = 0.3663	7.51	6.19	5.47	4.63	4.08	–
x1 = 0.415	8.85	7.3	6.4	5.38	4.7	–
x1 = 0.4644	10.5	8.6	7.5	6.3	5.47	–
x1 = 0.5145	12.7	10.3	8.9	7.4	6.4	–
x1 = 0.5653	15.4	12.4	10.6	8.8	7.5	–
x1 = 0.6169	18.9	15	12.8	10.5	8.9	–
x1 = 0.6692	23.4	18.5	15.6	12.7	10.7	–
x1 = 0.7223	29.2	22.9	19.1	15.4	12.9	–
x1 = 0.7762	36.7	28.4	23.5	18.9	15.6	–
x1 = 0.8309	46.5	35.7	29.3	23.2	19	–
x1 = 0.8864	59.2	44.8	36.4	28.6	23.3	–
x1 = 0.9428	75.2	56.4	45.4	35.5	28.7	–
